This is an account of results in publication PMC12472303 (2025).

Assay [1] has as its system poly dGdC-poly dGdC (DNA, polymer) GC. Briefly: fluorimetric titration, Scatchard. The note with it: Na+ (sodium cacodylate, I = 0.05 M), pH 7.0, per phosphate (nucleotide), n fixed at 0.2, <0.1% DMSO, per base.
Assay [2] concerns poly dAdT-poly dAdT (DNA, polymer) AT. Briefly: fluorimetric titration, Scatchard. The note with it: Na+ (sodium cacodylate, I = 0.05 M), pH 7.0, per phosphate (nucleotide), n fixed at 0.2, <0.1% DMSO, per base.
Assay [3] has as its system poly rA-poly rU (RNA, polymer) A/U. Briefly: UV thermal melting at 260 nm. The note with it: Na+ (sodium cacodylate, I = 0.05 M), pH 7.0, polynucleotide 20 µM nucleotide, r [compound]/[polynucleotide] = 0.3, error ±0.5 °C, per base.
In assay [4] the test system is poly dAdT-poly dAdT (DNA, polymer) AT. Nature of the assay: UV thermal melting at 260 nm. The following applies: Na+ (sodium cacodylate, I = 0.05 M), pH 7.0, polynucleotide 20 µM nucleotide, r [compound]/[polynucleotide] = 0.3, error ±0.5 °C, per base.
Assay [5] concerns Tel22 (DNA, G4) AGGGTTAGGGTTAGGGTTAGGG
Briefly: fluorimetric titration, SPECFIT. The following applies: Na+ (sodium cacodylate, I = 0.1 M), pH 7.0, <0.1% DMSO.

The test system is the same in assay [6]. Briefly: UV thermal melting at 260 nm. The note with it: Na+ (sodium cacodylate, I = 0.1 M), pH 7.0, Tel22 1–2 µM, r [compound]/[Tel22] = 4.
Setting [7] is: Na-cacodylate buffer, concentration as oligonucleotide.

SMILES strings stand for the structures.

As to `NC(N)=Nc1cc2ccccc2c2ccccc12`, the entries for the “log Ks” value in assay [1] and in assay [2] were 5.34 log Ks and 6.27 log Ks, respectively. Further, the ΔTm (commonly the shift of the melting midpoint relative to a reference) in assay [3] is “+1.3 °C”; in assay [4], “+0.9 °C”. In assay [5] (setting [7]), the “log K1” value came out at 5.61 ± 0.02 log K.

As for `N=C(N)Nc1ccc(-c2c3nc(c(-c4ccccc4)c4ccc([nH]4)c(-c4ccccc4)c4nc(c(-c5ccccc5)c5ccc2[nH]5)C=C4)C=C3)cc1`, the “log K1” value in assay [5] (Na-cacodylate, second step LG + G = LG2 log K2 5.07 ± 0.26) came out at 7.23 ± 0.49 log K.

Take `N=C(N)Nc1ccc2c3c(cccc13)-c1ccccc1-2`: the ΔTm result in assay [3] was “+0.9 °C”; in assay [4], 0 °C. The “log K1” value in assay [5] (setting [7]) is on record as 5.26 ± 0.13 log K.

As for `N=C(N)Nc1ccc2c(c1)Cc1ccccc1-2`, the ΔTm in assay [3] was −1.0 °C; in assay [4], 0 °C. In assay [5] (setting [7]), the “log K1” value is given as 5.78 ± 0.08 log K.

For `N=C(N)Nc1ccc2ccccc2c1`, in assay [2], the “log Ks” value worked out at 4.17 log Ks. Further, the ΔTm in assay [3] and in assay [4] was 0 °C throughout. The binding entry in assay [6] is reported as “weak”. In addition, in assay [5] (setting [7]), the “log K1” value was 5.36 ± 0.07 log K.
